Results from patent US8815593B2, “Induction of human embryonic stem cell derived cardiac pacemaker or chamber-type cardiomyocytes by manipulation of neuregulin signaling” (University of Washington, priority 2008, dated 2014).

How the values were obtained:
Format in all cases: cell-based, human
[1] = tested on: hESC-CM cultures; experiment: quantitative RT-PCR of cardiac subtype-specific genes; details: treated hESC-CMs vs control, normalized to GAPDH
Procedure: Total RNA was prepared by lysing cell preparations with the Qiagen RNEasy kit, followed by DNase treatment. After confirming the quality of the RNA using an Agilent Bioanalyzer 2100, it was reverse-transcribed into cDNA using the Superscript III first-strand cDNA synthesis kit (Invitrogen). Tables 2 and 3 list the primers used for semi-quantitative and quantitative RT-PCR reactions, respectively. All primer pairs were designed to be intron-spanning Quantitative real-time PCR reactions were performed using the SYBR green dye system and an Applied Biosystems 7900HT instrument. Cycling conditions were 10 minutes at 95° C., and 40 cycles of 30 seconds at 95° C., 30 seconds at 55° C., and 30 seconds at 72° C. mRNA levels were normalized using GAPDH as an internal control, and adult human heart cDNA was always run in parallel as a positive control.
In the preceding experiments, manipulation of NRG-1β/ErbB signaling changed the relative abundance of the two cardiac subtypes, as determined by both AP phenotyping and activation of the nodal-specific cGATA6-EGFP genetic reporter. To confirm these findings with an independent, molecular approach, quantitative RT-PCR was used to compare the expression of 18 subtype-specific genes in control, AG1478, and NRG-1β ligand-treated hESC-CM cultures (see Table 4). […] In sum, activation of NRG-1β/ErbB signaling increased the expression of genes associated with working cardiomyocytes, while its blockade with AG1478 increased the expression of genes associated with the nodal subtype.

[2] = tested on: cGATA6-EGFP-transduced hESC-CM cultures; experiment: cGATA6-EGFP reporter: fraction of EGFP+ putative nodal cells; details: cGATA6-EGFP transduced hESC-CMs, ~50% transduction efficiency; control 15%
Procedure: Prior to lentiviral transduction, hESC-CMs were replated onto glass coverslips as described for electrophysiological studies and allowed to recover for 4-5 days. Cells were then exposed to cGATA6-EGFP lentivirus (at 5000 LPs/cell, added to their usual RPMI-B27 medium) for 12 hours. […] Transduced cell preparations were then used in either electrophysiological or immunocytochemical studies at 3-4 days post-transduction.
Dissociated hESC-CMs were cultured on glass cover slips, fixed, and immunostained as previously described (Laflamme et al., “Cardiomyocytes Derived from Human Embryonic Stem Cells in Pro-Survival Factors Enhance Function of Infarcted Rat Hearts,” Nat. Biotechnol. 25(9):1015-1024 (2007), McDevitt et al., “Proliferation of Cardiomyocytes Derived from Human Embryonic Stem Cells is Mediated Via the IGF/PI 3-Kinase/Akt Signaling Pathway,” J Mol Cell Cardiol. 39(6):865-873 (2005), Laflamme et al., “Formation of Human Myocardium in the Rat Heart from Human Embryonic Stem Cells,” Am J. Pathol. 167(3):663-671 (2005), and Minami et al., “Extracardiac Progenitor Cells Repopulate Most Major Cell Types in the Transplanted Human Heart,” Circulation 112(19):2951-2958 (2005), which are hereby incorporated by reference in their entirety). […] Each experimental condition was assayed in triplicate, and a minimum of 500 nuclei were counted per sample. […]

[3] = tested on: hESC-CM cultures; experiment: action potential (AP) phenotyping of hESC-CMs under current clamp after manipulation of NRG-1β/ErbB signaling
Procedure: At 14 days following induction with activin A, hESC-CMs were dispersed using 0.1 U/ml of dispase (Invitrogen) with 63 U/ml DNase I (Invitrogen) and replated at low density onto 0.5% gelatin-coated glass coverslips. After a few days of additional culture, the spontaneously generated action potentials (APs) of the hESC-CMs were recorded using a HEKA EPC-10 amplifier (HEKA, Lambrecht, Germany), operated in current-clamp mode. Note that the EPC-10 has a true “voltage follower” circuit, similar to a classical microelectrode amplifier (Magistretti et al., “Modalities of Distortion of Physiological Voltage Signals by Patch-Clamp Amplifiers: a Modeling Study,” Biophys J. 74(2 Pt 1):831-842 (1998) and Magistretti et al., “Action Potentials Recorded with Patch-Clamp Amplifiers: Are They Genuine?” Trends Neurosci. 19(12):530-534 (1996), which are hereby incorporated by reference in their entirety). […] Patch pipettes with a resistance of 2-4 MΩ were used; cells with a series resistance of >10 MΩ were discarded. […] Action potential parameters were analyzed by an individual blinded to culture conditions, using Patchmaster (HEKA) and Igor Pro software. […]

[4] = tested on: Akt and ERK kinases in hESC-CM cultures; experiment: Western blot analysis of Akt and Erk phosphorylation; details: hESC-CMs day 10 post-induction, 10 minutes, 10 or 100 ng/ml NRG-1β, with or without 25 μg/ml anti-NRG1β antibody
Procedure: For this, hESC-CMs (˜5×10^6 […] per well) were treated on day 10 post-induction with 0, 10, or 100 ng/ml NRG-1β (R&D Systems) in the presence or absence of 25 μg/ml anti-NRG1β neutralizing antibody (R&D Systems) for 10 minutes. After treatment, cells were rinsed twice with ice-cold PBS and lysed for 20 minutes on ice with 250 μl of extraction buffer (25 mM Tris-HCl (pH 7.4), 150 mM NaCl, 2 mM EDTA, 10 mM Na2SO4, and 1% Triton X-100 supplemented just prior to use with 50 mM NaF, 1 mM sodium orthovanadate, 1 mM phenylmethylsulfonyl fluoride, and a protease inhibitor cocktail (Sigma)). Lysates were collected with a cell scraper, placed in microcentrifuge tubes, vortexed for 3 minutes at 4° C., and then spun at 4° C. for 20 minutes at 12,000 g to discard cell debris. The resultant protein lysates were then denatured at 95° C. for 10 minutes and loaded (at 30 μg/lane) onto a denaturing 10% SDS/polyacrylamide gel, electrophoresed, and then transferred onto a PVDF membrane. The PVDF blot was blocked for 1 hour at room temperature in 1×TBST (150 mM NaCl, 10 mM Tris-HCl (pH 7.4), and 0.1% Tween) plus 5% nonfat milk, probed overnight with anti-phosphorylation Akt and anti-phosphorylation Erk1/2 antibodies (Cell Signaling), and then incubated with peroxidase-conjugated goat anti-mouse IgG antibody (Sigma). […]

Row | Molecule | expression of HCN4 relative to control cells [1] [fold] | expression of Tbx-3 (TBX3) relative to control cells [1] [fold] | percentage of EGFP+ putative nodal cells [2] [%] | proportion of cells exhibiting a nodal-like AP phenotype ([3]; differentiating hESC-CM cultures, control 21%) [%] | expression of NPPA (atrial natriuretic factor, ANF) relative to controls [1] [fold] | effect on fraction of nodal cells (AP phenotyping) ([3]; exogenous NRG-1β 100 ng/ml, day 5 to 12 or continuously after day 5, versus control) | phosphorylation (activation) of Akt and ERK kinases [4] | phosphorylation (activation) of Akt and ERK kinases ([4]; listed as NRG-1β agonist)
1 | COc1cc2ncnc(Nc3cccc(Cl)c3)c2cc1OC [AG1478] | 2.0 | 2.6 | 25 | 52 |  |  |  | 
2 | NRG1β ligand: NRG-1β (R&D Systems), exogenous neuregulin-1β agonist of ErbB receptors (protein) TSHLVKCAEKEKTFCVNGGECFMVKDLSNPSRYLCKCPNEFTGDRCQNYVMASFYKHLGIEFMEAEELYQK |  |  |  |  | 2.6 | a trend toward the opposite effect (i.e., a reduction in the fraction of nodal cells) | phosphorylated | activation of both kinases
